Data on seven compounds can be found in patent publication US8952005B2, “Substituted 1,3-benzothiazol-2(3H)-ones and [1,3]thiazolo[5,4-B]pyridin-2(1H)-ones as positive allosteric modulators of mGluR2” (Merck Sharp & Dohme Corp., priority 2010, dated 2015).

Each structure is given as a SMILES string.

One may read the EC50 as the midpoint of the concentration-response curve.

T1 sequence (Q14416 19-872): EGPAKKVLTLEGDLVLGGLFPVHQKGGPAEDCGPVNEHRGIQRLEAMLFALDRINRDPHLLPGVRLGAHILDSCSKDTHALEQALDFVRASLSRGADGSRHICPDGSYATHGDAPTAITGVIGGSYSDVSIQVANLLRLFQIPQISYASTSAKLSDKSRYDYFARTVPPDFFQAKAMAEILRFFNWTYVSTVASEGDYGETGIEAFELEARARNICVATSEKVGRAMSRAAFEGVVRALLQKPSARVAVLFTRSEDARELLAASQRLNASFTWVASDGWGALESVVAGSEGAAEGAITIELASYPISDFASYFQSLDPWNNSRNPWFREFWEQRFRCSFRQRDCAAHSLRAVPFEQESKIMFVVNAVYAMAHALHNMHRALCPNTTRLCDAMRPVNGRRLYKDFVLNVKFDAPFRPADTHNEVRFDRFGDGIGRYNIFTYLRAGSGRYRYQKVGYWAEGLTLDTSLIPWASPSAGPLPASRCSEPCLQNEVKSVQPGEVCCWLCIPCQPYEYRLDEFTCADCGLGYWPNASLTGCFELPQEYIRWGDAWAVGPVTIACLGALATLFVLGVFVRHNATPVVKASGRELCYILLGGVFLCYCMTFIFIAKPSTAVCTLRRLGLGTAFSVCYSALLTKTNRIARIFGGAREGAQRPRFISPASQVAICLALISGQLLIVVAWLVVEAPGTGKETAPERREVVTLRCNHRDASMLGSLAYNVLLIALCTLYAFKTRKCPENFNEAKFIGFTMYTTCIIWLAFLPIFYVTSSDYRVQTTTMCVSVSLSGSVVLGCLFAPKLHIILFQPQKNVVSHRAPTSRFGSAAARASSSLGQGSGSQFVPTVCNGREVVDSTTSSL

This assay has as its target T1, recombinant human mGluR2 (Homo sapiens, UniProt Q14416).
T1 construct: expressed in transfected cells
Kind of assay: FLIPR Ca2+ mobilization assay, potentiation of glutamate response at mGluR2. The assay is classed as cell-based. Conditions: potentiation after addition of EC20 concentration of glutamate (900 nM); CHO dhfr- cells expressing human mGluR2 and Gα16. The procedure: Inhibition constants are determined as follows. The compounds of the present invention may be tested in a fluorescence laser imaging plate reader (FLIPR) based assay. This assay is a common functional assay to monitor Ca^2+ mobilization in whole cells expressing recombinant receptor coupled with a promiscuous G-protein. CHO dhfr− cells stably expressing recombinant human mGluR2 and Gα16 loaded with Fluo-4 AM (Invitrogen, Carlsbad Calif.) are treated with dose responses of compounds and the Ca^2+ response is monitored on a FLIPR384 (Molecular Devices, Sunnydale Calif.) for agonist activity. The potentiation response is monitored after a subsequent addition of an EC20 concentration of glutamate (900 nM). The maximum calcium response at each concentration of compound for agonist or potentiation are plotted as dose responses and the curves are fitted with a four parameters logistic equation giving EC50 and Hill coefficient using the iterative non linear curve fitting software program.
For orientation: Calcium flux is commonly read through the fluorescence of an indicator in the cells.
In the case of `Cc1ccc(C(C)(C)O)cc1-c1ccc2c(n1)sc(=O)n2CC1CC1(F)F` (stereo not shown) [Example 2-3, 1-{[2,2-difluorocyclopropyl]methyl}-5-[5-(1-hydroxy-1-methylethyl)-2-methylphenyl][1,3]thiazolo[5,4-b]pyridin-2(1H)-one], the concentration giving a half-maximal response (EC50) stood at 153 nM. To `CC(C)(C)Cn1c(=O)sc2nc(-c3ccccc3C#N)ccc21` [Example 3-2, 2-[1-(2,2-dimethylpropyl)-2-oxo-1,2-dihydro[1,3]thiazolo[5,4-b]pyridin-5-yl]benzonitrile] belongs 34 nM; to `N#Cc1ccccc1-c1ccc2c(c1)sc(=O)n2CC1CC1(F)F` (stereo not shown) [Example 5-2, 2-(3-{[2,2-difluorocyclopropyl]methyl}-2-oxo-2,3-dihydro-1,3-benzothiazol-6-yl)benzonitrile], 17 nM; to `O=c1sc2cc(-c3cccc(N4CCS(=O)(=O)CC4)c3)ccc2n1CC1CC1` [Example 6-16, 3-(cyclopropylmethyl)-6-[3-(1,1-dioxidothiomorpholin-4-yl)phenyl]-1,3-benzothiazol-2(3H)-one], 65 nM. Next, `N#Cc1ccccc1-c1ccc2c(c1)sc(=O)n2Cc1ccc(Cl)cc1F` [Example 9-15, 2-[3-(4-chloro-2-fluorobenzyl)-2-oxo-2,3-dihydro-1,3-benzothiazol-6-yl]benzonitrile]: 248 nM; `N#Cc1cc(Oc2ccc(C#N)c(-c3ccc4c(n3)sc(=O)n4CC3CC3(F)F)c2)ccn1` (stereo not shown) [Example 16-3, 4-(4-cyano-3-{1-[(2,2-difluorocyclopropyl)methyl]-2-oxo-1,2-dihydro[1,3]thiazolo[5,4-b]pyridin-5-yl}phenoxy)pyridine-2-carbonitrile]: 15 nM; `N#Cc1cccnc1Oc1ccc2c(c1)sc(=O)n2CC1CC1(F)F` (stereo not shown) [Example 18-3, 2-({3-[(2,2-difluorocyclopropyl)methyl]-2-oxo-2,3-dihydro-1,3-benzothiazol-6-yl}oxy)nicotinonitrile]: 306 nM.
